In PubChem BioAssay (NCI) one finds GI50 and TGI data, which are given here for nine molecules.

Some test systems named below: SK-MEL-5 melanoma; SF-539 CNS; SK-MEL-2 melanoma; SF-268 CNS; NCI/ADR-RES ovarian; COLO 205 colon; ACHN renal; HCT-116 colon; NCI-H23 lung; UACC-62 melanoma.
What all share (assay): growth of human tumour cells (NCI), 48 h

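Where inhibition never reached the appropriate level, the endpoint shown equals the highest concentration tested. Otherwise, values were interpolated linearly from a five-concentration, 48-hour dose response in 96-well plates. Abbreviation: GI50, concentration required for 50% inhibition of growth. At the TGI there is no net growth.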

In the case of `COc1cnccc1Nc1nc(-c2nn(Cc3c(F)cc(OCCO)cc3F)c3ccccc23)ncc1OC`, the GI50 in the experiment on SK-MEL-5 melanoma is 2.91 µM; in the experiment with SF-539 CNS, 10.7 µM; in the experiment with SK-MEL-2 melanoma, 11 µM; in the experiment with SF-268 CNS it was 3.85 µM; in the experiment with NCI/ADR-RES ovarian it was 2.97 µM; in the experiment on COLO 205 colon it was 17.7 µM. In addition, the values for the GI50 with ACHN renal, in the experiment with HCT-116 colon and in the experiment with NCI-H23 lung were 11.9 µM, 3.64 µM and 2.25 µM, respectively. Besides, the TGI in the experiment on SK-MEL-5 melanoma was 13 µM; in the experiment with SF-539 CNS, 22.9 µM; in the experiment on SK-MEL-2 melanoma, 27 µM; in the experiment with SF-268 CNS, 15.9 µM; in the experiment on NCI/ADR-RES ovarian it was 16.5 µM; in the experiment with COLO 205 colon it was greater than 100 µM. Besides, the TGI was 30.5 µM with ACHN renal, 20.2 µM in the experiment on HCT-116 colon and 8.69 µM in the experiment on NCI-H23 lung.

`O=C1C(Cl)=C(NCCCN(CCCNC2=C(Cl)C(=O)c3ccccc3C2=O)C2=C(Cl)C(=O)c3ccccc3C2=O)C(=O)c2ccccc21`: the GI50 in the experiment on SK-MEL-5 melanoma is 1.18 µM; in the experiment with UACC-62 melanoma, 1.98 µM; in the experiment on SF-539 CNS, 2.45 µM; in the experiment with SF-268 CNS it was 2.76 µM; in the experiment with NCI/ADR-RES ovarian it was 4.06 µM; in the experiment on NCI-H23 lung it was 1.69 µM. Also, the TGI is 2.43 µM in the experiment on SK-MEL-5 melanoma; 4.69 µM in the experiment with UACC-62 melanoma; 6.71 µM with SF-539 CNS; 18.8 µM in the experiment with SF-268 CNS; greater than 100 µM in the experiment with NCI/ADR-RES ovarian; 5.26 µM in the experiment on NCI-H23 lung.

Take `N#CC1=C(N)OC2=C(CCOc3c2ccc2ccccc32)C1c1ccc(Br)cc1` (stereo not given): the GI50 with UACC-62 melanoma is 48.1 µM; in the experiment on SF-539 CNS, greater than 100 µM; in the experiment with SF-268 CNS, 27.8 µM; in the experiment on NCI/ADR-RES ovarian, 33.4 µM; in the experiment with COLO 205 colon, 29 µM; in the experiment on ACHN renal it was 41.3 µM. In addition, the GI50 was 15.1 µM in the experiment with HCT-116 colon and 32.8 µM in the experiment with NCI-H23 lung. Moreover, the TGI in the experiment with UACC-62 melanoma, with SF-539 CNS, with SF-268 CNS, with NCI/ADR-RES ovarian, with COLO 205 colon and with ACHN renal was greater than 100 µM throughout. In addition, the results for the TGI with HCT-116 colon and with NCI-H23 lung were 47.7 µM and greater than 100 µM, respectively.

As for `Clc1ccc(-c2nc(NCc3ccco3)c3ccccc3n2)c(Cl)c1`, the GI50 is 13.9 µM in the experiment on SK-MEL-5 melanoma; 13.9 µM with UACC-62 melanoma; 36.8 µM in the experiment on SK-MEL-2 melanoma; 32.3 µM with SF-268 CNS; 26.3 µM with NCI/ADR-RES ovarian; 21.4 µM in the experiment on COLO 205 colon. Besides, the GI50 is 7.81 µM in the experiment on ACHN renal, 16.3 µM in the experiment with HCT-116 colon and 17.1 µM in the experiment on NCI-H23 lung. Also, the TGI is 30 µM in the experiment with SK-MEL-5 melanoma; 32.7 µM in the experiment with UACC-62 melanoma; greater than 100 µM in the experiment on SK-MEL-2 melanoma; 75.3 µM in the experiment with SF-268 CNS; greater than 100 µM in the experiment on NCI/ADR-RES ovarian; greater than 100 µM in the experiment on COLO 205 colon. Moreover, the figures for the TGI with ACHN renal, with HCT-116 colon and in the experiment on NCI-H23 lung were 58.3 µM, 45.8 µM and 60.5 µM, respectively.

On to `COc1ccc2nc3ccccc3c(NCCCCN(CCCl)CCCl)c2c1`, for which the TGI in the experiment with SK-MEL-5 melanoma was 3.37 µM; with UACC-62 melanoma, 1.42 µM; in the experiment with SF-539 CNS it was 1.26 µM; in the experiment on SK-MEL-2 melanoma it was 2.06 µM; with SF-268 CNS it was 2.36 µM; with NCI/ADR-RES ovarian, 5.4 µM. Further, the TGI with ACHN renal is 1.15 µM; in the experiment on HCT-116 colon it was 1.32 µM; with NCI-H23 lung it was 2.09 µM.

Turning to `CC(=O)CC(=O)Nc1ccccc1C(F)(F)F`, the TGI with SK-MEL-5 melanoma, in the experiment with UACC-62 melanoma, in the experiment with SF-539 CNS, in the experiment on SK-MEL-2 melanoma, in the experiment on SF-268 CNS and in the experiment with COLO 205 colon was greater than 100 µM in each case. Besides, the TGI in the experiment with ACHN renal, in the experiment with HCT-116 colon and in the experiment on NCI-H23 lung was greater than 100 µM throughout.

As for `O=C(C(=CN1CCN(C(=O)c2ccco2)C1=S)C(=O)c1ccccc1)c1ccccc1`, the GI50 is 10.9 µM in the experiment with SK-MEL-5 melanoma; 6.93 µM with UACC-62 melanoma; 12.1 µM with SK-MEL-2 melanoma; 9.18 µM with NCI/ADR-RES ovarian; 20 µM in the experiment on COLO 205 colon; 5.75 µM in the experiment on ACHN renal. Also, the GI50 in the experiment with HCT-116 colon was 7.93 µM; with NCI-H23 lung, 6.95 µM. Further, the TGI with SK-MEL-5 melanoma is 19.5 µM; in the experiment on UACC-62 melanoma, 18.3 µM; in the experiment with SK-MEL-2 melanoma, 25.6 µM; in the experiment on NCI/ADR-RES ovarian, 19 µM; in the experiment on COLO 205 colon, greater than 50 µM; in the experiment on ACHN renal it was 16.5 µM. Also, the TGI turned out to be 17 µM with HCT-116 colon and 14 µM in the experiment with NCI-H23 lung.

For `COC(=O)c1cc2cc(/C=C3/SC(=S)N(N(C(C)=O)C(C)=O)C3=O)oc2n1Cc1ccccc1`, the GI50 was 25.7 µM in the experiment with SK-MEL-5 melanoma; 14.4 µM in the experiment with UACC-62 melanoma; 20.4 µM with SF-539 CNS; 40.3 µM in the experiment on SK-MEL-2 melanoma; 48.2 µM in the experiment with SF-268 CNS; 14.4 µM in the experiment on NCI/ADR-RES ovarian. For the same molecule, the GI50 is 77.6 µM in the experiment with COLO 205 colon, 18.3 µM in the experiment on ACHN renal and 21.4 µM in the experiment on NCI-H23 lung. The TGI in the experiment on SK-MEL-5 melanoma was 62.7 µM; in the experiment with UACC-62 melanoma it was 33 µM; in the experiment with SF-539 CNS, 39.3 µM; with SK-MEL-2 melanoma, greater than 100 µM; with SF-268 CNS, greater than 100 µM; in the experiment on NCI/ADR-RES ovarian, 35 µM. For the same molecule, the TGI in the experiment on COLO 205 colon is greater than 100 µM; in the experiment on ACHN renal, 35.9 µM; in the experiment on NCI-H23 lung it was 44.6 µM.

Take `CCCCCCCCCCCCCS(=O)(=O)NCC(N)=O`: the TGI with SK-MEL-5 melanoma, in the experiment with UACC-62 melanoma, in the experiment with SF-539 CNS, in the experiment on SK-MEL-2 melanoma, in the experiment with SF-268 CNS and in the experiment with COLO 205 colon was greater than 100 µM each time. The TGI in the experiment with ACHN renal, in the experiment with HCT-116 colon and in the experiment with NCI-H23 lung was greater than 100 µM in each case.
